US6465482B2, “Arylpiperazinyl-cyclohexyl indole derivatives for the treatment of depression” (Wyeth, priority 1999, dated 2002)

Legend:
[1] = biological target: T1, human 5-HT1A receptor subtype (5-HT1A CHO cells) (Homo sapiens, UniProt P08908); test: forskolin-stimulated cAMP formation (cAMP SPA assay); assay type: cell-based; settings: forskolin 1 uM
T1 construct: expressed in transfected cells
T1 sequence (P08908 1-422): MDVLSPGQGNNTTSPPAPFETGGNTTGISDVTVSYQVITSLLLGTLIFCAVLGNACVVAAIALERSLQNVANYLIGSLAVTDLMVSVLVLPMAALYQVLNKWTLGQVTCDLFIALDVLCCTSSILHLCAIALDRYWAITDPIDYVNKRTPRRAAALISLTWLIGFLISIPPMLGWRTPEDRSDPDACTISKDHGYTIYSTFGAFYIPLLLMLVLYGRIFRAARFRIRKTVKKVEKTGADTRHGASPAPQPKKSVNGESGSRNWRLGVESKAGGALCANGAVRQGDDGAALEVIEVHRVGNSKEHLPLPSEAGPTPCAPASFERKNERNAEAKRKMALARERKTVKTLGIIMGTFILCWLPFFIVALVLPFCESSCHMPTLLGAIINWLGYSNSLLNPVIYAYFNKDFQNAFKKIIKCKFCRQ
Experimental: (§1) The PCR cloning of the human 5-HT1A receptor subtype from a human genomic library has been described previously Chanda et al., Mol. Pharmacol., 43:516 (1993). A stable Chinese hamster ovary cell line expressing the human 5-HT1A receptor subtype (5-HT1A.CH2O cells) was employed throughout this study. Cells were maintained in DMEM supplemented with 10% fetal calf serum, non-essential amino acids and penicillin/streptomycin.
The following assays were performed by incubating the cells with DMEM containing 25 mM HEPES, 5 mM theophylline and 10 μM pargyline for a period of 20 minutes at 37° C. Functional activity was assessed by treating the cells with forskolin (1 uM final concentration) followed immediately by test compound (6 concentrations) for an additional 10 minutes at 37° C. In separate experiments, 6 concentrations of antagonist were preincubated for 20 minutes prior to the addition of 10 nM 8-OH-DPAT and forskolin. The reaction was terminated by removal of the media and addition of 0.5 ml ice cold assay buffer. Plates were stored at −20° C. prior to assessment of cAMP formation by a cAMP SPA assay (Amersham).

[2] = biological target: T2, human 5-HT1A receptor subtype (Homo sapiens, UniProt P08908); test: 5-HT1A receptor binding, [3H]8-OH-DPAT, CHO cell membranes; settings: [3H]8-OH-DPAT 1.5 nM
T2 construct: expressed in transfected cells
T2 sequence (P08908 1-422): T1 sequence (P08908 1-422)
Experimental: as §1
Cells were grown to 95-100% confluency as a monolayer before membranes were harvested for binding studies. Cells were gently scraped from the culture plates, transferred to centrifuge tubes, and washed twice by centrifugation (2000 rpm for 10 min., 4° C.) in buffer (50 mM Tris; pH 7.5). The resulting pellets were aliquoted and placed at −80° C. On the day of assay, the cells were thawed on ice, and resuspended in buffer. Studies were conducted using [^3H]8-OH-DPAT as the radioligand. The binding assay was performed in 96 well microtiter plates in a final total volume of 250 μL of buffer. Competition experiments were performed by using 7 concentrations of unlabelled drug and a final ligand concentration of 1.5 nM. Non-specific binding was determined in the presence of 10 μM 5HT. Saturation analysis was conducted by using [^3H]8-OH-DPAT at concentaritions ranging from 0.3-30 nm Following a 30 minute incubation at room temperature, the reaction was terminated by the addition of ice cold buffer and rapid filtration using a M-96 Brandel Cell Harvester (Gaithersburg, Md.) through a GF/B filter presoaked for 30 minutes in 0.5% polyethylenenimine.

[3] = biological target: T3, 5-HT1A cloned receptor membrane fragments (Homo sapiens, UniProt P08908); test: [35S]-GTPγS binding assay; assay type: biochemical; settings: relative to excess 8-OH-DPAT maximum agonist response
T3 construct: expressed in transfected cells
T3 sequence (P08908 1-422): T1 sequence (P08908 1-422)
Experimental: The [^35S]-GTPγS biding assay was similar to that used by Lazarenno and Birdsall, Br. J. Pharmacol. 109:1120 (1993). Briefly, 5-HT1A cloned receptor membrane fragments (as used for 5-HT1A receptor binding assays were stored at −70° C. unit needed. When needed, membranes were rapidly thawed, centrifuged at […] for 10 minutes and resuspended at 4° C. for 10 minutes in assay buffer (25 mM HEPES, 3 mM MgCl2, 100 mM NaCl, 1 mM EDTA, 10 uM GDP, […], pH 8.0). These membranes were then incubated for 30 minutes at 30+ C. with [^35S]GTPgS (1 nM) in the presence of vehicle, test compound (one to eight concentrations), or excess 8-OH-DPAT to define maximum agonist response. All reactions are terminated by the addition of ice cold Tris buffer followed by rapid filtration using a Tom Tech® filtration device to separate bound from free [^35S]GTPgS. Agonists produce an increase in the amount of [^35S]GTPgS bound whereas antagonists produce no increase in binding. Bound radioactivity was counted and analyzed as above.

serotonin transporter = biological target: T4, serotonin transporter (Rattus norvegicus, UniProt P31652); test: serotonin transporter affinity, 3H-paroxetine binding, frontal cortical membranes; settings: 3H-paroxetine 0.1 nM; read-out: ST (Ki, nM,)
T4 construct: frontal cortical membranes prepared from male Sprague-Dawley rats; from tissue; host or cells: rat frontal cortex membranes
Experimental: A protocol similar to that used by Cheetham et al., Neuropharmacol. […] Briefly, frontal cortical membranes prepared from male Sprague-Dawley rats were incubated with ^3H-paroxetine (0.1 nM) for 60 minutes at 25° C. […] All reactions are terminated by the addition of ice cold Tris buffer followed by rapid filtration using a Tom Tech filtration device to separate bound from free ^3H-paroxetine.

T4 sequence (P31652 whole entry): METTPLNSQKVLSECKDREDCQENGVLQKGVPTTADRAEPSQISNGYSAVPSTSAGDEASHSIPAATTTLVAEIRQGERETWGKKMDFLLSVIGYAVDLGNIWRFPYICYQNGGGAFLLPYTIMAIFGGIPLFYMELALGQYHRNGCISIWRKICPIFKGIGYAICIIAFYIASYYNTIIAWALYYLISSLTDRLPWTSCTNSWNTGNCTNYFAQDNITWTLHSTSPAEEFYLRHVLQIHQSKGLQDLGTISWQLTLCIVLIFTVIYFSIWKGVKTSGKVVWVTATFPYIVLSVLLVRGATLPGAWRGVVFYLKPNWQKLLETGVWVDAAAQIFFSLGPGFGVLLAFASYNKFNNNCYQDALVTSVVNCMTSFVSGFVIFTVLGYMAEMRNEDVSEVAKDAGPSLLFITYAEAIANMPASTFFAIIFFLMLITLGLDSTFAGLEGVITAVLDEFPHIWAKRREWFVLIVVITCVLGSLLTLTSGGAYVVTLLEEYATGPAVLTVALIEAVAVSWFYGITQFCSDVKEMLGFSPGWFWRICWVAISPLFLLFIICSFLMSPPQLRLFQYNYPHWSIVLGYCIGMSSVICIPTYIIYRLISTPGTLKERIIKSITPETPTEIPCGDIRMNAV

| SMILES | Emax [1] [%] | Ki [2] [nM] | Emax [3] [%] | Ki (serotonin transporter) [nM] |
| --- | --- | --- | --- | --- |
| N#Cc1ccc2[nH]cc([C@H]3CC[C@@H](N4CCN(c5cccc6c5OCCO6)CC4)CC3)c2c1 [Example 26a, 3-{(1,4-cis)-4-[4-(2,3-Dihydro-benzo[1,4]dioxin-5-yl)-piperazin-1-yl]-cyclohexyl}-1H-indole-5-carbonitrile] | 0 | 59.1 | 18 | 4.1 |
| N#Cc1ccc2[nH]cc([C@H]3CC[C@H](N4CCN(c5cccc6cccnc56)CC4)CC3)c2c1 [Example 29b, 3-[(1,4-trans)-4-(4-Quinolin-8-yl-piperazin-1-yl)-cyclohexyl]-1H-indole-5-carbonitrile] |  |  | 70 |  |
| c1cc(N2CCN([C@H]3CC[C@H](c4c[nH]c5ncccc54)CC3)CC2)c2cc[nH]c2c1 [Example 10b, 3-{(1,4-trans)-4-[4-(1H-Indole-4-yl)-piperazin-1-yl]-cyclohexyl}-1H-pyrrolo[2,3-b]pyridine] | 79 | 7.78 | 14 |  |
| COc1ccccc1C1CCN([C@H]2CC[C@H](c3c[nH]c4ccc(F)cc43)CC2)CC1 [Example 19b, 5-Fluoro-3-{(1,4-trans)-4-[4-(2-methoxy-phenyl)-piperidin-1-yl]-cyclohexyl}-1H-indole] | 92 | 26.2 | 74 |  |
| N#Cc1ccc2[nH]cc([C@H]3CC[C@H](N4CCN(c5cccc6c5OCCO6)CC4)CC3)c2c1 [Example 26b, 3-{(1,4-trans)-4-[4-(2,3-Dihydro-benzo[1,4]dioxin-5-yl)-piperazin-1-yl]-cyclohexyl}-1H-indole-5-carbonitrile] |  | 8.5 | 39 | 23 |
| Fc1ccc2[nH]cc([C@H]3CC[C@@H](N4CCN(c5cccc6[nH]ccc56)CC4)CC3)c2c1 [Example 3a, 5-Fluoro-3-[cis-4-[4-(1H-indol-4-yl)-1-piperazinyl]cyclohexyl]-1H-indole] | 0 | 36.7 | 10 |  |
| Fc1ccc2c(c1)[nH]cc2[C@H]1CC[C@H](N2CCN(c3cccc4c3OCCO4)CC2)CC1 [Example 25b, 3-{(1,4-trans)-4-[4-(2,3-Dihydro-benzo[1,4]dioxin-5-yl)-piperazin-1-yl]-cyclohexyl}-6-fluoro-1H-indole] |  | 9.66 | 46 | 58 |
| COc1ccc2[nH]cc([C@H]3CC[C@H](N4CCN(c5ccccc5OC)CC4)CC3)c2c1 [Example 20b, 5-Methoxy-3-{(1,4-trans)-4-[4-(2-methoxy-phenyl)-piperazin-1-yl]-cyclohexyl}-1H-indole] | 75.5 | 14.9 | 33 |  |
| N#Cc1ccc2[nH]cc([C@H]3CC[C@@H](N4CCN(c5cccc6[nH]ccc56)CC4)CC3)c2c1 [Example 7a, 3-{4-[(1,4-cis)-4-(1H-Indol-4-yl)-piperazinyl-1-yl]cyclohexyl}-1H-indole-5-carbonitrile] | 0 |  | 0 | 1.62 |
